Test results taken from US12109253B2, “Use of IGFBP7 for treating malaria” (AGENCY FOR SCIENCE, TECHNOLOGY AND RESEARCH, priority 2019, dated 2024).
Values joined by “and” are separate entries in the source; they are usually repeats but may differ in a detail not shown here. Equal values may be shown once.

Key:
[1] = test system: P. falciparum; assay: Rosetting assay (percentage of IRBC that form rosettes), P. falciparum; format: cell-based, Plasmodium falciparum
Protocol: (§1) Rosetting assay was conducted when 70% of the parasite population reached late stages (late trophozoites and schizonts) unless stated otherwise. The parasite culture suspension was stained subvitally with Giemsa (5% stain working concentration) for 20 minutes. Subsequently, 7.6 μl stained suspension was pipetted onto a clean glass slide, immediately covered with a 22×32 mm glass cover slip. The wet mount was examined with light microscope using 1000× magnification. Rosetting rate (percentage of rosetting IRBCs) was defined as the percentage of IRBC (over 200 recruited IRBC) that form rosettes. Experiments were conducted in blinded manner.
(§2) Following data review, coupled with critical information (i.e. the protein's subcellular location and cellular functions) from UNIPROT, candidates were shortlisted for further validation. The parasite culture suspensions were incubated with CSMT and antibodies against the shortlisted proteins (see Table 6, items 35, 37, 39-41) and tested in rosetting assay at a final concentration of 25 μg/ml.
(§3) The parasite culture suspension was divided into three groups, one served as control, the second group was added with recombinant human IGFBP7 (final concentration 100 ng/ml), and the third group was mixed with CSMT (CSMT:parasite culture=1:3). After one hour of incubation under in vitro cultivation conditions, rosetting assay was conducted. Separately, a portion of the IGFBP7 suspension was heat-denatured at 95° C. for one hour, prior to use in rosetting assay.
(§4) Parasite cultures were incubated with IGFBP7 (working concentrations 0-25,000 ng/ml) prior to rosetting assay. Time course experiments were performed with laboratory-adapted P. falciparum lines (3D7, MKK183, FVT402, FVT201, WPP3065) incubated with IGFBP7 (100 ng/ml). Rosetting assay was conducted after five minutes, using 7 μl of the suspension. The remaining suspension was kept back into the incubator. Rosetting assay was repeated at five minute-intervals until one hour-post-IGFBP7 exposure. Reversibility of IGFBP7-mediated rosette-stimulation was also tested. Parasite lines (3D7, MKK183, FVT402, FVT201, WPP3065) were incubated with IGFBP7 (100 ng/ml) and rosetting assay was conducted with 7 μl of the suspension. The remaining suspension was centrifuged at 1500 g for five minutes. Supernatant was removed, and the pellet was washed thrice with culture medium, followed by re-suspension with culture medium. Five minutes later, 7 μl of the suspension was taken for rosetting assay, subsequently repeated at five minute-intervals up to one-hour post-IGFBP7 removal.
(§5) Magnetic activated cell sorter (MACS)-sorted late stage-IRBC (purity 95%) were trypsinized at different working concentrations. The first group was mixed with enzyme trypsin (final trypsin concentration of 10 μg/ml), and the second was mixed with enzyme trypsin (final trypsin concentration of 1 mg/ml). The third served as untreated control. The cells were incubated at 37° C. for 30 minutes. After that, the cells were washed with serum-enriched medium for three times. Each group was incubated with or without IGFBP7 (100 ng/ml) prior to rosetting assay. P. falciparum line CS2 deficient of SBP1 [(SBP1-KO-CS2), which lacks P. falciparum erythrocyte membrane protein 1 (PFEMP1) on its IRBC surface] and its wild type (CS2-WT) counterpart were cultured as described. Their rosetting rates post-incubation with IGFBP7 at different concentrations were determined. P. falciparum clones NF54 VAR2CSA_WT and NF54_T934D (cannot express PfEMP1 variant VAR2CSA on IRBC surface^32) were cultivated. Experiments were conducted when parasite population reached late stages. For each parasite line, two conditions were applied; one was incubated with IGFBP7 (100 ng/ml) whereas the other one acted as IGFBP7-free control. Rosetting assay was conducted afterwards. Five replicates were conducted for each experiment setting. […]

[2] = test system: THP-1; assay: Zymosan A phagocytosis by THP-1 (control experiment); format: cell-based, human; conditions: IGFBP7 100 ng/ml one hour, then Zymosan A 10 μg/ml one hour
Protocol: THP-1 is cultivated and expanded into three batches. For each batch of culture, 1×10^6 cells were incubated with IGFBP7 (working concentration 100 ng/ml) for one hour at in vitro cultivation conditions. Another set of cells acted as IGFBP7-free control. Subsequently, Zymosan A (working concentration 10 μg/ml) was added to both sets of cells and incubated for another one hour at in vitro cultivation conditions. Supravital staining with Giemsa was done for 15 minutes following this. Using wet mount technique, the percentage of THP-1 cells which has engulfed Zymosan A was determined as phagocytosis rate by recruiting 1,000 THP-1 cells. The experiment was repeated with the other two batches of THP-1 culture. And all the steps were repeated for another two times using THP-1 cultures thawed at different time points. P. falciparum lines (3D7, MKK183, FVT402, FVT201, CS2_WT) were incubated with or without IGFBP7 in serum-enriched medium prior to rosetting assay. Subsequently, THP-1 were added. Using wet mount technique, the IRBC phagocytosis rates were determined following the same formula to determine phagocytosis rate in the Zymosan A experiment. […]

[3] = test system: P. vivax; assay: Rosetting assay (percentage of IRBC that form rosettes), P. vivax; format: cell-based, Plasmodium vivax
Protocol: as §1, §2, §3, §4, §5

insulin-like growth factor binding protein 7 [IGFBP7]
effect on rosetting rates with VWF in Albumax medium ([1]; 0.25% Albumax II medium, IGFBP7 100 ng/ml, VWF 0-2.0 IU/ml, no TSP-1): did not significantly increase rosetting rates | IGFBP7-induced rosetting in filtered serum ([1]; 20% human serum filtered with 0.45 μm filter, IGFBP7 100 ng/ml): abolished | rosette-stimulating capacity after heat denaturation ([1]; 95° C. for one hour, Pf n=5): abolished | effect on rosetting rate ([1]; CS2 wild-type parasite): increased | effect on rosetting of trypsin-treated IRBC ([1]; IRBC treated with 10 μg/ml or 1 mg/ml trypsin, IGFBP7 100 ng/ml, Pf n=5): did not significantly alter rosetting | rosetting rates ([1]; NF54 T934D (no VAR2CSA on IRBC surface), IGFBP7 100 ng/ml, one hour, biological replicates): 0.5% (2×) and 1.5% (2×) and 1.0% | rosetting rates ([1]; NF54 VAR2CSA_WT, IGFBP7 100 ng/ml, one hour, biological replicates): 5.0% and 7.0% and 4.5% and 4.0% and 6.5% | rosetting rates ([1]; Pf co-incubated with THP-1, IGFBP7 100 ng/ml, biological replicates): 11.0% and 13.0% and 16.0% and 9.0% and 10.0% | rosetting rates ([1]; Pf co-incubated with monocytes, IGFBP7 100 ng/ml, biological replicates): 14.0% and 18.0% and 15.0% and 17.0% and 10.0% | concentration at which significant rosette-stimulation noted ([1]; Pf n=7, one hour incubation, 0-25,000 ng/ml tested): 50 ng/mL | concentration from which significant rosette-stimulation was noted ([1]; PfCS2-WT): 100 ng/mL | effect on rosetting rate ([1]; SBP1-KO-CS2 (no PfEMP1 on IRBC surface)): no effect | effect on rosetting with URBC of different ABO blood groups ([1]; URBC groups A, B, O, AB, rhIGFBP7 100 ng/ml, Pf n=7): significantly increase rosetting rates regardless of the blood groups | rosetting with heparinase-treated URBC ([1]; URBC treated with heparinase I or III 25 μg/ml, purified Pf IRBC): did not induce rosetting | rosetting rates of IRBCs detached from hCMEC/D3 ([1]; after co-incubation with URBCs and IGFBP7, all parasite lines recruited): 5-25% | rosette formation prior to THP-1 exposure ([1]; five different P. falciparum lines, IGFBP7-incubated): formed more rosettes | minimum time to significantly stimulate rosetting ([1]; lab-adapted Pf n=5, IGFBP7 100 ng/ml): ≥ 15 min | time after protein removal at which rosetting rates revert to baseline ([1]; lab-adapted Pf n=5, after IGFBP7 100 ng/ml exposure and washing): 15 min | rosetting rates ([1]; late ring stages (hour 16-26) of NHP1106, IGFBP7 100 ng/ml, replicates flask/cycle): 8.5% and 7.0% (2×) and 8.0% (2×) and 6.0% (3×) and 5.0% | concentration at which rosette stimulation reaches a plateau ([1]; leukocyte-free parasite culture, P. falciparum isolates): 100 ng/mL | effect on rosetting rates in 2% serum ([1]; medium with only 2% serum, IGFBP7 100 ng/ml, no VWF added): could not increase rosetting rates | effect on phagocytosis ability of THP-1 [2]: increased | rosette-stimulating capacity after heat denaturation ([3]; 95° C. for one hour, Pv n=4): abolished | effect on rosetting of trypsin-treated IRBC ([3]; IRBC treated with 10 μg/ml or 1 mg/ml trypsin, IGFBP7 100 ng/ml, Pv n=4): did not significantly alter rosetting | concentration at which significant rosette-stimulation noted ([3]; Pv n=7, one hour incubation, 0-25,000 ng/ml tested): 50 ng/mL | effect on rosetting with URBC of different ABO blood groups ([3]; URBC groups A, B, O, AB, rhIGFBP7 100 ng/ml, Pv n=7): significantly increase rosetting rates regardless of the blood groups | rosetting with heparinase-treated URBC ([3]; URBC treated with heparinase I or III 25 μg/ml, purified Pv IRBC): did not induce rosetting | concentration at which rosette stimulation reaches a plateau ([3]; leukocyte-free parasite culture, P. vivax isolates): 100 ng/mL
